Patent US9120749B2, “Quinoline derivatives and MELK inhibitors containing the same” (ONCOTHERAPY SCIENCE, INC., priority 2010, dated 2015)
Read-outs that look alike come from different tables or passages of the source.

Legend:
MELK = MELK (Homo sapiens, UniProt Q14680); test: Kinase assay: MELK activity, phosphorylation of FITC-labeled histone H3 peptide measured by IMAP fluorescence polarization; type: biochemical; conditions: read-out: IC50 (μM) (kinase assay)
In short: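 Fluorescence polarization was measured 0.5 h (room temperature) after quenching with threefold volume of progressive binding solution. Test compounds from 12.5 mM DMSO stocks were assayed at 1% DMSO.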

T47D cells = test: Cell-based assay: anti-proliferative activity, Cell Counting Kit-8, 72 hours (T47D); conditions: Homo sapiens, T47D, 72 h
In short: (§1)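 Proliferation read with Cell Counting Kit-8 after 72 hours of inhibitor treatment, from seeding of 2,000–3,000 cells/well. Lines: T47D, A549, BT-549; HT-1197, lacking MELK by western blot, served as negative control. IC50 derived.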

A549 cells = test: Cell-based assay: anti-proliferative activity, Cell Counting Kit-8, 72 hours (A549); conditions: 72 hours
Description: 100 micro-L of cell suspension was seeded onto 96-well microtiter plate (ViewPlate-96FTC, PerkinElmer). The initial cell concentration of T47D, A549, BT-549, and HT-1197 were 3,000 cells/well, 2,000 cells/well and 2,500 cells/well, respectively. Cellular growth was determined using Cell Counting Kit-8 (DOJINDO) at 72 hours after the exposure of the candidate inhibitors. […] Accurate IC50 values were calculated as described previously.

HT-1197 cells = test: Cell-based assay: anti-proliferative activity, Cell Counting Kit-8, 72 hours (HT-1197, negative control without MELK expression); conditions: Homo sapiens, HT1197, 72 h, HT1197 cells (negative control, no MELK expression), 72 hours
In short: as §1

DU4475 cells = test: Cell-based assay: anti-proliferative activity, Cell Counting Kit-8, 72 hours (DU4475)

Sequence of MELK (Q14680 whole entry, looked up): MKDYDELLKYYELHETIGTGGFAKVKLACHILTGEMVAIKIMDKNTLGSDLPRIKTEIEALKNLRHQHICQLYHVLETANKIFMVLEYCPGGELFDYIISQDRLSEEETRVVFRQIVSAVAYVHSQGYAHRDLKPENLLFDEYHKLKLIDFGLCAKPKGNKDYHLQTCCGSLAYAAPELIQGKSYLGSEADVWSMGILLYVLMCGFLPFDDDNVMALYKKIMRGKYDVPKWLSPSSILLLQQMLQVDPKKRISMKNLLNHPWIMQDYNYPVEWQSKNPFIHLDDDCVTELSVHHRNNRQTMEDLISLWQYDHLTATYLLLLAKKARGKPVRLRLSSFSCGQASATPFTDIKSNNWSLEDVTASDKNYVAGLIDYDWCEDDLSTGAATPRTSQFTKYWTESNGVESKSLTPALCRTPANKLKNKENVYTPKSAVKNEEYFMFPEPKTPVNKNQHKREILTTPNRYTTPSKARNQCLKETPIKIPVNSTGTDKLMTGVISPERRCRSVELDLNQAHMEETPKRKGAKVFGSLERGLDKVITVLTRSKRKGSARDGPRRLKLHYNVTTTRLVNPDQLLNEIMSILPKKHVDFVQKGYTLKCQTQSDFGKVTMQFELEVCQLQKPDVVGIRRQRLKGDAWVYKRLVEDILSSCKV

Structure (SMILES) | IC50 (MELK) | IC50 (T47D cells) | IC50 (A549 cells; Homo sapiens, A549, 72 h) | IC50 (HT-1197 cells) | IC50 (DU4475 cells; Homo sapiens, DU-4475, 72 h) | IC50 (A549 cells) | IC50 (DU4475 cells)
COc1cc(-c2ccc3ncc(C(=O)C4CC4)c(N[C@H]4CC[C@H](CN5CCC(O)C5)CC4)c3c2)cc(Cl)c1O (stereo partly shown) [Example 630] | 0.0023 µM | 0.41 µM | 0.19 µM | 3.6 µM | 0.17 µM |  | 
O=C(c1cnc2ccc(-c3cc(F)c(O)c(Cl)c3)cc2c1N[C@H]1CC[C@H](CN2CCC(O)C2)CC1)C1CC1 (stereo partly drawn) [Example 631, (6-(3-chloro-5-fluoro-4-hydroxyphenyl)-4-((trans-4-((3-hydroxypyrrolidin-1-yl)methyl)cyclohexyl)amino)quinolin-3-yl)(cyclopropyl)methanone] | 0.0021 µM | 0.074 µM | 0.17 µM | 0.85 µM | 0.055 µM |  | 
CN(CCO)C[C@H]1CC[C@H](Nc2c(C(=O)C3CC3)cnc3ccc(-c4cc(F)c(O)c(Cl)c4)cc23)CC1 [Example 632, (6-(3-chloro-5-fluoro-4-hydroxyphenyl)-4-((trans-4-(((2-hydroxyethyl)(methyl)amino)methyl)cyclohexyl)amino)quinolin-3-yl)(cyclopropyl)methanone] | 0.0031 µM | 0.069 µM | 0.1 µM | 0.72 µM | 0.069 µM |  | 
COc1cc(-c2ccc3ncc(C(=O)C4CC4)c(N[C@H]4CC[C@H](CN(C)CCO)CC4)c3c2)cc(Cl)c1O [Example 633] | 0.0016 µM | 0.21 µM | 0.12 µM | 2.3 µM | 0.15 µM |  | 
CN(CCO)C[C@H]1CC[C@H](Nc2c(C(=O)C3CC3)cnc3ccc(-c4cc(Cl)c(O)c(Cl)c4)cc23)CC1 [Example 634] | 0.0008 µM | 0.099 µM | 0.095 µM | 0.75 µM | 0.042 µM |  | 
COc1cc(-c2ccc3ncc(C(=O)C4CC4)c(N[C@H]4CC[C@H](CN5CCN(C)CC5)CC4)c3c2)cc(Cl)c1O [Example 637] | 0.0035 µM | 0.68 µM | 0.32 µM | 2.9 µM | 0.67 µM |  | 
CC1(N)CCC(Nc2c(C(=O)C3CC3)cnc3ccc(-c4cc(Cl)c(O)c(Cl)c4)cc23)CC1 (stereo not shown) [Example 638, [4-(4-Amino-4-methylcyclohexylamino)-6-(3,5-dichloro-4-hydroxyphenyl)quinolin-3-yl](cyclopropyl)methanone] | 0.0034 µM | 0.1 µM | 0.12 µM | 0.67 µM | 0.022 µM |  | 
COc1cc(-c2ccc3ncc(C(=O)C4CC4)c(NC4CCC(C)(N)CC4)c3c2)cc(Cl)c1O (stereo not shown) [Example 639, [4-(4-Amino-4-methylcyclohexylamino)-6-(3-chloro-4-hydroxy-5-methoxyphenyl)quinolin-3-yl](cyclopropyl)methanone] | 0.0012 µM | 0.1 µM | 0.09 µM | 0.46 µM | 0.062 µM |  | 
COc1cc(-c2ccc3ncc(C(=O)C(C)C)c(Nc4ccc(CN(C)C)cc4)c3c2)cc(Cl)c1O [Example 640, 1-(6-(3-chloro-4-hydroxy-5-methoxyphenyl)-4-(4-((dimethylamino)methyl)phenylamino)quinolin-3-yl)-2-methylpropan-1-one] | 0.027 µM | 0.54 µM | 0.61 µM | 0.82 µM | 0.52 µM |  | 
CC(C)C(=O)c1cnc2ccc(-c3cc(Cl)c(O)c(Cl)c3)cc2c1Nc1ccc(CN(C)C)cc1 [Example 641, 1-(6-(3,5-dichloro-4-hydroxyphenyl)-4-(4-((dimethylamino)methyl)phenylamino)quinolin-3-yl)-2-methylpropan-1-one] | 0.0076 µM | 0.22 µM | 0.23 µM | 0.74 µM | 0.097 µM |  | 
O=C(c1cnc2ccc(-c3cc(F)c(O)c(Cl)c3)cc2c1NC1CCC(N2CC[C@@H](F)C2)CC1)C1CC1 (stereo partly drawn) [Example 642, (R)-(6-(3-chloro-5-fluoro-4-hydroxyphenyl)-4-(4-(3-fluoropyrrolidin-1-yl)cyclohexylamino)quinolin-3-yl)(cyclopropyl)methanone] | 0.0075 µM | 0.17 µM | 0.2 µM | 0.76 µM | 0.11 µM |  | 
O=C(c1cnc2ccc(-c3cc(Cl)c(O)c(Cl)c3)cc2c1NC1CCC(N2CC[C@@H](F)C2)CC1)C1CC1 (stereo partly drawn) [Example 643, (R)-cyclopropyl(6-(3,5-dichloro-4-hydroxyphenyl)-4-(4-(3-fluoropyrrolidin-1-yl)cyclohexylamino)quinolin-3-yl)methanone] | 0.004 µM | 0.37 µM | 0.34 µM | 2.4 µM | 0.14 µM |  | 
COc1cc(-c2ccc3ncc(C(=O)C4CC4)c(Nc4cnc(N5CCCC(N)C5)nc4)c3c2)cc(Cl)c1O (stereo not shown) [Example 644, (4-(2-(3-aminopiperidin-1-yl)pyrimidin-5-ylamino)-6-(3-chloro-4-hydroxy-5-methoxyphenyl)quinolin-3-yl)(cyclopropyl)methanone] | 0.0028 µM | 0.047 µM | 0.23 µM | 2.4 µM | 0.068 µM |  | 
COc1cc(-c2ccc3ncc(C(=O)C4CC4)c(NC4CCC(N5CC[C@@H](F)C5)CC4)c3c2)cc(Cl)c1O (stereo partly drawn) [Example 645, (R)-(6-(3-chloro-4-hydroxy-5-methoxyphenyl)-4-(4-(3-fluoropyrrolidin-1-yl)cyclohexylamino)quinolin-3-yl)(cyclopropyl)methanone] | 0.0062 µM | 0.45 µM | 0.33 µM | 2.2 µM | 0.29 µM |  | 
N[C@H]1CCCN(c2ccc(Nc3c(C(=O)C4CC4)cnc4ccc(-c5cc(Cl)c(O)c(Cl)c5)cc34)cn2)C1 [Example 646, (S)-(4-(6-(3-aminopiperidin-1-yl)pyridin-3-ylamino)-6-(3,5-dichloro-4-hydroxyphenyl)quinolin-3-yl)(cyclopropyl)methanone] | 0.0011 µM | 0.02 µM |  | 0.56 µM |  | 0.022 µM | 0.0035 µM
N[C@H]1CCCN(c2ccc(Nc3c(C(=O)C4CC4)cnc4ccc(-c5cc(F)c(O)c(Cl)c5)cc34)cn2)C1 [Example 648, (S)-(4-(6-(3-aminopiperidin-1-yl)pyridin-3-ylamino)-6-(3-chloro-5-fluoro-4-hydroxyphenyl)quinolin-3-yl)(cyclopropyl)methanone] | 0.0019 µM | 0.0095 µM | 0.013 µM | 0.28 µM | 0.0046 µM |  | 
COc1cc(-c2ccc3ncc(C(=O)C4CC4)c(Nc4ccc(N5CCC[C@@H](N)C5)nc4)c3c2)cc(Cl)c1O [Example 649, (R)-(4-(6-(3-aminopiperidin-1-yl)pyridin-3-ylamino)-6-(3-chloro-4-hydroxy-5-methoxyphenyl)quinolin-3-yl)(cyclopropyl)methanone] | 0.0021 µM | 0.087 µM | 0.15 µM | 1.4 µM | 0.077 µM |  | 
N[C@@H]1CCCN(c2ccc(Nc3c(C(=O)C4CC4)cnc4ccc(-c5cc(Cl)c(O)c(Cl)c5)cc34)cn2)C1 [Example 650, (R)-(4-(6-(3-aminopiperidin-1-yl)pyridin-3-ylamino)-6-(3,5-dichloro-4-hydroxyphenyl)quinolin-3-yl)(cyclopropyl)methanone] | 0.001 µM | 0.0099 µM | 0.015 µM | 0.32 µM | 0.0072 µM |  | 
N[C@@H]1CCCN(c2ccc(Nc3c(C(=O)C4CC4)cnc4ccc(-c5cc(F)c(O)c(Cl)c5)cc34)cn2)C1 [Example 651, (R)-(4-(6-(3-aminopiperidin-1-yl)pyridin-3-ylamino)-6-(3-chloro-5-fluoro-4-hydroxyphenyl)quinolin-3-yl)(cyclopropyl)methanone] | 0.00076 µM | 0.0054 µM | 0.0075 µM | 0.12 µM | 0.0071 µM |  | 
CN(C)C[C@]1(O)CC[C@@H](Nc2c(C(=O)C3CC3)cnc3ccc(-c4cc(Cl)c(O)c(Cl)c4)cc23)CC1 [Example 652, cyclopropyl(6-(3,5-dichloro-4-hydroxyphenyl)-4-((cis-4-((dimethylamino)methyl)-4-hydroxycyclohexyl)amino)quinolin-3-yl)methanone] | 0.0011 µM | 0.15 µM | 0.15 µM | 1.4 µM | 0.051 µM |  | 
CC(=O)c1cnc2ccc(-c3cc(Cl)c(O)c(Cl)c3)cc2c1Nc1ccc(CN2CCN(C)CC2)cc1 [Example 654, 1-(6-(3,5-dichloro-4-hydroxyphenyl)-4-(4-((4-methylpiperazin-1-yl)methyl)phenylamino)quinolin-3-yl)ethanone] | 0.0082 µM | 0.091 µM | 0.19 µM | 8.7 µM | 0.11 µM |  | 
CN(C)C1CCN(Cc2ccc(Nc3c(C(=O)C4CC4)cnc4ccc(-c5cc(Cl)c(O)c(Cl)c5)cc34)cc2)C1 (stereo not shown) [Example 694, cyclopropyl(6-(3,5-dichloro-4-hydroxyphenyl)-4-(4-((3-(dimethylamino)pyrrolidin-1-yl)methyl)phenylamino)quinolin-3-yl)methanone] |  | 0.41 µM | 0.15 µM | 7.5 µM | 0.12 µM |  | 
